Reference: patent US20240166591A1, “Pharmaceutical Products Based on Cannabinoid Acid Esters” (priority 2021, published 2024)
pEC50: −log10 of the molar value.

Assays:
[1] = system: breast cancer cells MDA-MB-231; conditions: cited from earlier work
cyclooxygenase-2 = conditions: MDA-MB-231; cited from earlier work
[2] = system: SK-BR-3 cancer cell line (human breast cancer cell line); assay: MTT cytotoxicity assay, SK-BR-3 cancer cell line; format: cell-based; conditions: for pEC50: cancer cell line SKBR3
Description: (§1) The cytotoxic activity of CBDA methyl esters, CBCA CBGA and THCA was studied by the in vitro MTT colorimetric process (Mosmann, T. et al. J. Immunol. Methods. 1983; 65: 55-63). This method, which is widely used to measure cellular metabolic activity as an indicator of cell viability, division and cytotoxicity, is based on the reduction of a yellow salt of tetrazole ((3-(4,5-dimethylthiazol-2-yl)-2). 5-diphenyltetrazolium bromide or MTT) in violet formazan crystals from metabolically active cells.
(§2) Briefly for this cytotoxicity test, the SK-BR-3 cancer cell line (human breast cancer cell line), the MCF-7 cancer cell line (human breast cancer cell line), and the A2058 cancer cell line […]) and the cancer line SKMEL28 (melanoma line). All cell lines were tested at 20% v/v O2, in the presence of 10% FBS after 48 h or 72 h of incubation.

[3] = system: MCF-7 cancer cell line (human breast cancer cell line); assay: MTT cytotoxicity assay, MCF-7 cancer cell line; format: cell-based; conditions: MCF7 cell line
Description: as §1, §2

[4] = system: A2058 cancer cell line (melanoma); assay: MTT cytotoxicity assay, A2058 cancer cell line; format: cell-based
Description: as §1, §2

SKMEL28 (melanoma line) = assay: MTT cytotoxicity assay, SKMEL28 cancer line; format: cell-based
Description: as §1, §2

normal MCF10A cells = assay: Cytotoxic activity in normal MCF10A cells compared to SK-BR-3; format: cell-based; conditions: FIG. 3
Description: FIG. 3. Comparison of the cytotoxic activity of CBDA methyl ester in SK-BR-3 cancer cells compared to the cytotoxic activity in normal MCF10A cells.
as §1

[5] = MTT, incubation time not stated (48 h or 72 h)

Structure (SMILES): C=C(C)[C@@H]1CCC(C)=C[C@H]1c1c(O)cc(CCCCC)c(C(=O)O)c1O [CBDA, Cannabidiolic acid]
- cell migration [1]: inhibit cell migration
- expression of cyclooxygenase-2 (cyclooxygenase-2): enhance the expression of cyclooxygenase-2

Structure (SMILES): CCCCCc1cc(O)c(C/C=C(\C)CCC=C(C)C)c(O)c1 [CBG, cannabigerol, reference compound]
- pEC50 ([2]; Homo sapiens, SK-BR-3, 72 h): 4.41

Structure (SMILES): CCCCCc1cc2c(c(O)c1C(=O)OC)C=CC(C)(CCC=C(C)C)O2 (stereo not shown) [CBCA-Me, CBCA methyl ester]
- pEC50 [2, 5]: 4.46

Structure (SMILES): CCCCCc1cc2c(c(O)c1C(=O)OC)C1C=C(C)CCC1C(C)(C)O2 (stereo not shown) [THCA-Me, THCA methyl ester]
- pEC50 [2, 5]: 4.44

Structure (SMILES): CCCCCc1cc(O)c(C/C=C(\C)CCC=C(C)C)c(O)c1C(=O)OC [CBGA-Me, CBGA methyl ester]
- relative cytotoxic activity among the esters ([2]; SKBR3, 48 h and 72 h (FIGS. 1 and 2)): greatest activity
- activity compared with the corresponding decarboxylated product ([2]; SKBR3, 72 h for CBGA methyl ester vs CBG): almost twice as active as CBG
- pEC50 [2, 5]: 4.69
- pEC50 [3]: 4.74
- pEC50 [4]: 4.77
- pEC50 (SKMEL28 (melanoma line)): 4.77

Structure (SMILES): C=C(C)[C@@H]1CCC(C)=C[C@H]1c1c(O)cc(CCCCC)c(C(=O)OC)c1O [CBDA-Me, CBDA methyl ester]
- pEC50 [2, 5]: 4.51
- effect on SK-BR-3 cancer cells compared with normal MCF10A cells (normal MCF10A cells): much stronger effect on SK-BR-3 cancer cells than normal MCF10A cells
